Assay results from article PMC7732128, “Regulation of gene transcription by thyroid hormone receptor β agonists in clinical development for the treatment of non-alcoholic steatohepatitis (NASH)” (PLoS ONE, 2020).
“Also recorded” adds a separate entry of the source. Read-outs that look alike come from different tables or passages of the source.

How the values were obtained:
[1] = High-fat diet fed rat study: plasma compound concentration (LC-MS/MS); assay type: in vivo; settings: male, Sprague Dawley, po, HFD rats, read-out: Plasma AUC0-24hrs
Protocol: (§1) Eighty-four male Sprague Dawley rats, approximately 8 to 11 weeks of age, were fed with either a normal diet, ND (D12450K: 10 kcal% fat, no sucrose), or high-fat diet, HFD (D12109C: 40 kcal% fat, 1.25 gm% cholesterol, 0.5 gm% sodium cholate, 12.5 gm% sucrose). After 12 days of diet consumption, baseline serum total cholesterol and low-density lipoprotein cholesterol (LDL-C) levels were measured with the cobas 6000 c501 Chemistry Analyzer (Roche) to confirm hypercholesterolemia in the HFD fed rats. Animals were then randomized into treatment groups.
Twenty-four hrs after dosing, animals were euthanized by CO2 inhalation and serum and plasma were collected along with liver tissue. Serum total cholesterol and LDL-C levels were determined as described above. […] Caudate lobes of the liver were used for analysis of hepatic total cholesterol (Abcam, ab65390) and triglyceride levels (Abcam, ab65336) via enzyme-linked immunosorbent assay. Right lateral lobes were stored in RNAlater (Invitrogen, AM7020) at -70°C until homogenization with the Scientz-48 TissueLyser LT for downstream gene expression analysis. RNA extraction was performed at WuXi AppTec (Hong Kong) Limited (China) with the RNeasy Mini Kit (Qiagen, 74106) and RNA concentration and quality was determined using the Nanodrop 2000 (Thermo Scientific); additional quality control was assessed with agarose gel electrophoresis. One μg total RNA from each sample was then reverse-transcribed using the High Capacity cDNA Reverse Transcription kit (Applied Biosystems, 4368814) and the resulting cDNA was diluted 1:5 with nuclease-free, distilled water. Gene expression was measured using TaqMan Fast Advanced Master Mix and the following TaqMan Gene Expression assays: Actb (Rn00667869_m1), Cpt1a (Rn00580702_m1), Dio1 (Rn00572183_m1), Me1 (Rn00561502_m1), Rplp1 (Rn03467157_gH), and Thrsp (Rn01511034_m1). Actb and Rplp1 served as control housekeeping genes. […] Relative quantification (RQ) of gene expression was calculated via the 2^−ΔΔCt method and statistical analysis was performed in GraphPad Prism 8.0 and Microsoft Excel.

HFD fed rats = assay: High-fat diet fed rat study: serum and hepatic lipid levels; assay type: in vivo
Protocol: Animals were purchased from Vital River Laboratory Animal Technology Co. Ltd. and experiments were conducted at Covance Pharmaceutical R&D (Shanghai) Co., Ltd. (China). Animals were group-housed in polycarbonate cages with corncob bedding under controlled temperature (21–25°C), humidity (40–70%), and a 12-hr light/dark cycle. All procedures performed were in compliance with local animal welfare legislation, Covance global policies and procedures, and the Guide for the Care and Use of Laboratory Animals.
as §1
Twenty-four hrs after dosing, animals were euthanized by CO2 inhalation and serum and plasma were collected along with liver tissue. Serum total cholesterol and LDL-C levels were determined as described above. […] Caudate lobes of the liver were used for analysis of hepatic total cholesterol (Abcam, ab65390) and triglyceride levels (Abcam, ab65336) via enzyme-linked immunosorbent assay. Right lateral lobes were stored in RNAlater (Invitrogen, AM7020) at -70°C until homogenization with the Scientz-48 TissueLyser LT for downstream gene expression analysis. RNA extraction was performed at WuXi AppTec (Hong Kong) Limited (China) with the RNeasy Mini Kit (Qiagen, 74106) and RNA concentration and quality was determined using the Nanodrop 2000 (Thermo Scientific); additional quality control was assessed with agarose gel electrophoresis. One μg total RNA from each sample was then reverse-transcribed using the High Capacity cDNA Reverse Transcription kit (Applied Biosystems, 4368814) and the resulting cDNA was diluted 1:5 with nuclease-free, distilled water. Gene expression was measured using TaqMan Fast Advanced Master Mix and the following TaqMan Gene Expression assays: Actb (Rn00667869_m1), Cpt1a (Rn00580702_m1), Dio1 (Rn00572183_m1), Me1 (Rn00561502_m1), Rplp1 (Rn03467157_gH), and Thrsp (Rn01511034_m1). Actb and Rplp1 served as control housekeeping genes. Ten μL reactions were run on the qTOWER³ 84. Relative quantification (RQ) of gene expression was calculated via the 2^−ΔΔCt method and statistical analysis was performed in GraphPad Prism 8.0 and Microsoft Excel.

[2] = system: hepatic OATP1B1/B3 transporters; parameters: method as in PMID 19785645; settings: cited from earlier work
healthy volunteers = settings: two weeks, ≥ 80 mg; cited from earlier work
THRβ over THRα = settings: from ligand-binding affinities (Kd or Ki); cited from earlier work
GST-tagged THRβ LBD = biological target: T1, GST-tagged THRβ LBD (Homo sapiens, UniProt P10828); assay: TR-FRET thyroid hormone receptor coactivator assay, THRβ; assay type: biochemical; settings: for EC50: read-out: THRβ EC50 Mean ± SEM
T1 construct: purchased Invitrogen PV4686
T1 sequence (P10828 217-461 limits assumed): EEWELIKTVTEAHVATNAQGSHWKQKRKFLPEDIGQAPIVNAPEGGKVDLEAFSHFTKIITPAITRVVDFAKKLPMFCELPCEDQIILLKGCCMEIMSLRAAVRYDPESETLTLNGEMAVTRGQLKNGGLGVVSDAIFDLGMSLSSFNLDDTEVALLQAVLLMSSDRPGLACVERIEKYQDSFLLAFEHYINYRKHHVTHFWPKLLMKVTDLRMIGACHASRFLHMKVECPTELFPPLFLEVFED
Text: A time-resolved FRET (TR-FRET)-based, biochemical assay was used as an initial screen to assess the ability of compounds to bind either THRα or β in vitro. […] Upon excitation of the terbium-labeled anti-GST antibody, energy is transferred to the fluorescein-labeled coactivator peptide and is detected as emission at 520 nm.
The assay procedure is based on the manufacturer’s protocol for LanthaScreen™ TR-FRET Thyroid Receptor beta Coactivator Assay (Invitrogen, PV4686) with slight, optimized modifications. Briefly, the assay was performed in 384-well, black microplate plates, protected from light. Test compounds were serially diluted in DMSO (1.0% final DMSO concentration) and added to the test plate. GST-tagged THRα or β LBD was added to the plate to yield a final concentration of 1.0 nM, followed by a mixture of the fluorescein-labeled SRC2-2 coactivator peptide and terbium-labeled anti-GST antibody at the final concentrations of 200.0 nM and 2.0 nM, respectively. […] Statistical analysis was performed in GraphPad Prism 8.0.
In the TR-FRET thyroid hormone receptor coactivator assay, increasing concentrations of each compound was combined with the GST-tagged LBD of THRα or β, a coactivator peptide, and terbium-labeled anti-GST antibody. TR-FRET was then measured and dose-response curves were generated. In the luciferase reporter assay, HEK293T cells were transfected with a firefly luciferase reporter plasmid under the control of the TRE-Luc, a RXR expression plasmid, and either a THRα or β expression plasmid. The cells were then treated with increasing concentrations of each compound. Luminescence was measured and dose-response curves were generated. For both assays, calculated EC50 means ± SEM, n, and THRα EC50-to-THRβ EC50 ratios (α:β) are reported for each compound-THR subtype combination.

[3] = parameters: method as in doi:10.1016/s0735-1097(16)31933-7; settings: 14-day treatment, ≥ 5 mg; cited from earlier work
cholesterol-fed rat = system: cholesterol-fed rat; parameters: method as in PMID 18975928; settings: cited from earlier work
[4] = 0.5 mg/kg P.O. single dose, 24 hrs
[5] = 5.0 and 1.5 mg/kg P.O. single dose, 24 hrs post-dose

| AUC(0-t) ([1]; 0.5 mg/kg P.O. single dose) [ng·h/mL] | AUC(0-t) ([1]; 1.5 mg/kg P.O. single dose) [ng·h/mL] | AUC(0-t) ([1]; 5.0 mg/kg P.O. single dose) [ng·h/mL] | α:β (THRα EC50-to-THRβ EC50 ratio) (GST-tagged THRβ LBD) | EC50 (GST-tagged THRβ LBD) [nM] | SMILES | effect on serum LDL-C (HFD fed rats; [4]) | effect on serum total cholesterol (HFD fed rats; [4]) | effect on serum triglyceride levels (HFD fed rats; [4]) | decrease in serum triglyceride levels (pre-dose vs 24 hrs post-dose) (HFD fed rats; 1.5 mg/kg P.O. single dose) [%] | decrease in serum total cholesterol (pre-dose vs 24 hrs post-dose) (HFD fed rats; 5 mg/kg P.O. single dose) [%] | decrease in serum triglyceride levels (pre-dose vs 24 hrs post-dose) (HFD fed rats; 5.0 mg/kg P.O. single dose) [%] | effect on hepatic cholesterol levels (HFD fed rats; [5]) | effect on hepatic triglyceride levels (HFD fed rats; [5]) | transporter substrate [2] | reduction in LDL-C (healthy volunteers) | reduction in total cholesterol (healthy volunteers) | selectivity for THRβ over THRα (THRβ over THRα) [fold] | reduction in LDL-C [3] | reduction in total cholesterol (cholesterol-fed rat; single dose 0.5 mg/kg) [%] | decrease in total cholesterol (cholesterol-fed rat; single dose 3.0 mg/kg) [%] |
| --- | --- | --- | --- | --- | --- | --- | --- | --- | --- | --- | --- | --- | --- | --- | --- | --- | --- | --- | --- | --- |
| 2600 | 8200 | 21700 |  |  | CC(C)c1cc(Oc2c(Cl)cc(-n3nc(C#N)c(=O)[nH]c3=O)cc2Cl)n[nH]c1=O [MGL-3196, 2-[3,5-dichloro-4-(5-isopropyl-6-oxo-1,6-dihydropyridazin-3-yloxy)phenyl]-3,5-dioxo-2,3,4,5-tetrahydro[1,2,4]triazine-6-carbonitrile] | did not significantly lower | no significant effect; also recorded: did not significantly lower | did not have a significant effect; also recorded: did not significantly lower | 37.5 | 33.6 | 32.1 | did not significantly affect | did not significantly affect | substrate | 21.8–30.3% | 16.0–22.8% |  |  |  |  |
|  |  |  | 2.5 | 10.1 ± 2.7 | Cc1cc(OCP(=O)(O)O)cc(C)c1Cc1ccc(O)c(C(C)C)c1 [VK2809A] |  |  |  |  |  |  |  |  |  |  |  | 15.8 |  |  |  |
|  |  |  | 0.6 | 460 ± 163 | Cc1cc(OCP2(=O)OCC[C@@H](c3cccc(Cl)c3)O2)cc(C)c1Cc1ccc(O)c(C(C)C)c1 (stereo partly shown) [VK2809] |  |  |  |  |  |  |  |  |  |  |  |  | up to 41.2% | 36 | ≤ 55 |
